Laboratory results from patent US20250090540A1, “PI3K-ALPHA INHIBITORS AND METHODS OF USE THEREOF” (Relay Therapeutics, Inc., priority 2021, published 2025).

Each molecule was assayed against H1047R PIK3CA enzyme (Homo sapiens, UniProt P42336, H1047R) (assay: ADP-Glo Biochemical PIK3CA Kinase Assay). Details: not given.
Procedure: Compounds to be assayed were plated in 16 doses of 1:2 serial dilutions (20 nL volume each well) on a 1536-well plate, and the plate warmed to room temperature. PIK3CA enzyme (e.g. H1047R, E542K, E545K, or wild-type) (1 μL of 2 nM solution in Enzyme Assay Buffer (comprising 50 mM HEPES pH 7.4, 50 mM NaCl, 6 mM MgCl2, 5 mM DTT and 0.03% CHAPS)) was added and shaken for 10 seconds and preincubated for 30 minutes. To the well was added 1 μL of 200 μM ATP and 20 μM of diC8-PIP2 in Substrate Assay Buffer (50 mM HEPES pH7.4, 50 mM NaCl, 5 mM DTT and 0.03% CHAPS) to start the reaction, and the plate was shaken for 10 seconds, then spun briefly at 1500 rpm, and then incubated for 60 minutes at room temperature. The reaction was stopped by adding 2 μL of ADP-Glo reagent (Promega), and spinning briefly at 1500 rpm, and then incubating for 40 minutes. ADP-Glo Detection reagent (Promega) was added and the plate spun briefly at 1500 rpm, then incubated for 30 minutes.

Sequence of H1047R PIK3CA enzyme (P42336 whole entry H1047R): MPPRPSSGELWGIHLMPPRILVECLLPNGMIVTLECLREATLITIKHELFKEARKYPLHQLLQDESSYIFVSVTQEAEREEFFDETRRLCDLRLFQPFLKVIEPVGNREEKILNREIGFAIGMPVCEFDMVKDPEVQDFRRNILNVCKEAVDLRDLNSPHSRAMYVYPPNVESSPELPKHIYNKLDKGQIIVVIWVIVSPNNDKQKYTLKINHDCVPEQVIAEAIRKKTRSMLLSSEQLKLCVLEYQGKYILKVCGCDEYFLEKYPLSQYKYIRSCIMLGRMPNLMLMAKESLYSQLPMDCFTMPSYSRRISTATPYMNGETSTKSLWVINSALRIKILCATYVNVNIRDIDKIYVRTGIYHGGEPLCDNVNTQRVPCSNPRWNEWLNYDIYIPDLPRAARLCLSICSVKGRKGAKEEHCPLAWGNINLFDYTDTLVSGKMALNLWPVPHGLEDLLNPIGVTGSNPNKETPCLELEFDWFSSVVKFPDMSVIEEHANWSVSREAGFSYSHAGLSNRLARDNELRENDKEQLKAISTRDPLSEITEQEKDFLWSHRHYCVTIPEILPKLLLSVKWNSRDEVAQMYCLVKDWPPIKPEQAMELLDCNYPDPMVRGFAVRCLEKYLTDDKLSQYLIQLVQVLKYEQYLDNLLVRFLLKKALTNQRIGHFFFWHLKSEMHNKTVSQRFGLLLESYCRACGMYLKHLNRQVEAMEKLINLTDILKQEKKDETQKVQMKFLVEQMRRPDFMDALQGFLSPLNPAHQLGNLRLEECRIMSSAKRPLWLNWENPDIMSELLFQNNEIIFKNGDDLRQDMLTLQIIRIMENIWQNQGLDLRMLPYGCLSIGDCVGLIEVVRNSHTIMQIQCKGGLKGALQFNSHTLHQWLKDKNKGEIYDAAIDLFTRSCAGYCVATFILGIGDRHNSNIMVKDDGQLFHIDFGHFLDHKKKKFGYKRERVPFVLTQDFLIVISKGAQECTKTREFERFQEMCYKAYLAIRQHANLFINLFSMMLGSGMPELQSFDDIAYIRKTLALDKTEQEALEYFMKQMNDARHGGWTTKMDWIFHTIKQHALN
Sequence of H1047R PIK3CA enzyme (P27986 whole entry partner): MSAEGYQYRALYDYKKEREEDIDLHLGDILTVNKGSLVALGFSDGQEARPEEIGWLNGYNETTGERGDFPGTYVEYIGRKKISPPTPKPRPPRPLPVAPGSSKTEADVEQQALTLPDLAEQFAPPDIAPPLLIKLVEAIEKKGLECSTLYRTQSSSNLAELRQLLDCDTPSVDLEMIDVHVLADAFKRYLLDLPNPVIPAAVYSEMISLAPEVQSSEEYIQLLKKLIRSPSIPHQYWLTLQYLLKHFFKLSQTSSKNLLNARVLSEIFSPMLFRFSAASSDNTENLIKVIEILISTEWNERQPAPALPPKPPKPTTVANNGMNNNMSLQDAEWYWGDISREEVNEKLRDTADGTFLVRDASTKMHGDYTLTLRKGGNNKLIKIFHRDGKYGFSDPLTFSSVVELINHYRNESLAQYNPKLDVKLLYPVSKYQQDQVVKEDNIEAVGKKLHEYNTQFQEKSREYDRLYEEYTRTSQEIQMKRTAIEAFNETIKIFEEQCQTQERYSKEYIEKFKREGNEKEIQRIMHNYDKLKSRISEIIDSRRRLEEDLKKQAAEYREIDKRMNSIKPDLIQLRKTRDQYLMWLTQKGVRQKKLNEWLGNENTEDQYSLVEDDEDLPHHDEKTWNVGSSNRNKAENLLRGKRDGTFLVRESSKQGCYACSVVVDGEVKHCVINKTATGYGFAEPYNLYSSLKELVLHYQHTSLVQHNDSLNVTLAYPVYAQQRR

Cc1ccccc1N[C@H]1CCN(C(=O)OC(C)(C)C)C[C@H]1C(=O)Nc1cc(F)cc(C(F)(F)F)c1 (racemic) [I-68] and Cc1ccccc1N[C@H]1CCN(C(=O)OC(C)(C)C)C[C@@H]1C(=O)Nc1cc(F)cc(C(F)(F)F)c1 (racemic) [I-156] fall in the same range of IC50: 10 to 100 µM for the first, 10 to 100 µM for the second.

CNC(=O)N1CC[C@H](Nc2ccccc2C)[C@H](C(=O)Nc2cc(F)cc(C(F)(F)F)c2)C1 (racemic) [I-203] and CNC(=O)N1CC[C@@H](Nc2ccccc2C)[C@H](C(=O)Nc2cc(F)cc(C(F)(F)F)c2)C1 (racemic) [I-229] fall in the same range of IC50: 10 to 100 µM for the first, 10 to 100 µM for the second.

Cc1ccccc1N[C@H]1CCN(C(=O)C2(O)CC2)C[C@H]1C(=O)Nc1cc(F)cc(C(F)(F)F)c1 (racemic) [I-227] and Cc1ccccc1N[C@H]1CCN(C(=O)C2(O)CC2)C[C@@H]1C(=O)Nc1cc(F)cc(C(F)(F)F)c1 (racemic) [I-228] fall in the same range of IC50: 10 to 100 µM for the first, 10 to 100 µM for the second.

Cc1ccccc1N[C@H]1CCN(C(=O)CC2CCOCC2)C[C@H]1C(=O)Nc1cc(F)cc(C(F)(F)F)c1 (racemic) [I-251] and Cc1ccccc1N[C@H]1CCN(C(=O)CC2CCOCC2)C[C@@H]1C(=O)Nc1cc(F)cc(C(F)(F)F)c1 (racemic) [I-254] fall in the same range of IC50: 10 to 100 µM for the first, 10 to 100 µM for the second.

Cc1ccccc1N[C@H]1CCN(C2CCC2)C[C@H]1C(=O)Nc1cc(F)cc(C(F)(F)F)c1 (racemic) [I-252] and Cc1ccccc1Nc1ncc(C(=O)N2CCCC2)cc1NC(=O)c1cc(F)cc(C(F)(F)F)c1 [I-15] fall in the same range of IC50: 10 to 100 µM for the first, 10 to 100 µM for the second.

First: CNC(=O)c1cnc(N2C[C@H]3C[C@H]3c3ccccc32)c(NC(=O)c2csc3ccccc23)c1 (racemic) [I-253]
Second: O=C(NC1CS(=O)(=O)C1)c1cnc(N2C[C@H]3C[C@H]3c3ccccc32)c(NC(=O)c2csc3ccccc23)c1 (racemic) [I-255]
The IC50 of the first is higher: 1 to 10 µM for the first, 0.5 to 1 µM for the second.

C[C@@H](NC(=O)c1cnc(N2CCCOc3ccccc32)c(NC(=O)c2csc3ccccc23)c1)c1cccnc1 (racemic) [I-278] and CC1CN(c2ncc(C(=O)N[C@H](C)c3cccnc3)cc2NC(=O)c2csc3ccccc23)c2ccccc2O1 (mixture of isomers) [I-336] fall in the same range of IC50: 1 to 10 µM for the first, 1 to 10 µM for the second.

First: CN1CC[C@H](NC(=O)c2cnc(N3CCOc4ccccc43)c(NC(=O)c3csc4ccccc34)c2)C1 (racemic) [I-349]
Second: Cc1ccccc1Nc1ncc(C(=O)N[C@@H]2CCN(C)C2)cc1NC(=O)c1cc(F)cc(C(F)(F)F)c1 (stereo in doubt) [I-64]
The IC50 of the first is lower: 0.5 to 1 µM for the first, 1 to 10 µM for the second. The first is the more potent here.

First: Cc1ccccc1[C@@H]1Nc2ccccc2[C@H]1CNC(=O)c1cc(F)cc(C(F)(F)F)c1 (racemic) [I-808, 3-fluoro-N-(((2R,3S)-2-(o-tolyl)indolin-3-yl)methyl)-5-(trifluoromethyl)benzamide]
Second: Cc1ccc(NC(=O)c2cc(F)cc(C(F)(F)F)c2)c(Nc2ccccc2C)n1 [I-59]
The IC50 of the first is higher: 10 to 100 µM for the first, 1 to 10 µM for the second. The second is the more potent here.

CNC(=O)c1cnc(N[C@@H]2CCCC[C@@H]2CO)c(NC(=O)c2cc(F)cc(C(F)(F)F)c2)c1 (racemic) [I-812] and O=C(Nc1cc(-c2ccc3ncnn3c2)cnc1N[C@H]1CCCC[C@H]1CO)c1cc(F)cc(C(F)(F)F)c1 (racemic) [I-817] fall in the same range of IC50: 10 to 100 µM for the first, 10 to 100 µM for the second.

O=C1C[C@H](CCO)[C@@H](CNC(=O)c2cc(F)cc(C(F)(F)F)c2)[C@H](c2cc(F)ccc2Cl)N1 (racemic) [I-821] and O=C(N[C@@H]1CCC[C@H](O)[C@H]1c1cc(F)ccc1Cl)c1cc(F)cc(C(F)(F)F)c1 (racemic) [I-823, N-[(1R,2S,3S)-2-(2-chloro-5-fluorophenyl)-3-hydroxycyclohexyl]-3-fluoro-5-(trifluoromethyl)benzamide] fall in the same range of IC50: 10 to 100 µM for the first, 10 to 100 µM for the second.

CNC(=O)CN1CC(=O)N[C@H](c2cc(F)ccc2Cl)[C@H]1C(=O)NC1CCCC(C(F)(F)F)C1 (mixture of isomers) [I-825, trans-3-(2-chloro-5-fluorophenyl)-1-[(methylcarbamoyl)methyl]-5-oxo-N-[3-(trifluoromethyl)cyclohexyl]piperazine-2-carboxamide] and CNC(=O)c1cnc(N2CCc3ccccc32)c(NC(=O)c2cc(F)cc(C(F)(F)F)c2)c1 [I-37] fall in the same range of IC50: 10 to 100 µM for the first, 10 to 100 µM for the second.

CNC(=O)c1cnc(Nc2ccccc2C)c(NC(=O)[C@H](N)C2CCCCC2)c1 (stereo in doubt) [I-142] and CNC(=O)c1cnc(Nc2ccccc2C)c(NC(=O)[C@@H](N)C2CCCCC2)c1 (stereo in doubt) [I-159] fall in the same range of IC50: 10 to 100 µM for the first, 10 to 100 µM for the second.

Compared with CNC(=O)c1cnc(Nc2ccccc2C)c(NC(=O)c2cc(F)cc(Br)c2)c1 [I-2], CNC(=O)c1cnc(Nc2ccccc2C)c(NC(=O)c2cc3c(F)cc(F)cc3[nH]2)c1 [I-5] is higher in IC50: 0.5 to 1 µM for the first, 10 to 100 µM for the second.

COC(=O)c1cnc(Nc2ccccc2C)c(NC(=O)c2cc(F)cc(C(F)(F)F)c2)c1 [I-3] and Cc1ccccc1Nc1ncc(C(=O)O)cc1NC(=O)c1cc(F)cc(C(F)(F)F)c1 [I-17] fall in the same range of IC50: 1 to 10 µM for the first, 1 to 10 µM for the second.

Cc1ccccc1Nc1ncc(-c2cnn(C)c2)cc1NC(=O)c1cc(F)cc(C(F)(F)F)c1 [I-9] and Cc1cnc(Nc2ccccc2C)c(NC(=O)c2cc(F)cc(C(F)(F)F)c2)c1 [I-19] fall in the same range of IC50: 10 to 100 µM for the first, 10 to 100 µM for the second.

CNC(=O)c1cnc(Nc2ccccc2C)c(N(S(=O)(=O)c2ccc(F)cc2C)S(=O)(=O)c2ccc(F)cc2C)c1 [I-10] and CNC(=O)c1cnc(Nc2ccccc2C)c(N(S(=O)(=O)c2ccccc2)S(=O)(=O)c2ccccc2)c1 [I-13] fall in the same range of IC50: 10 to 100 µM for the first, 10 to 100 µM for the second.

CNC(=O)c1cnc(Nc2ccccc2C)c(NC(=O)c2cc(Cl)ccc2OC)c1 [I-12] and CNC(=O)c1cnc(Nc2ccccc2C)c(NC(=O)Cc2cccc(Cl)c2)c1 [I-35] fall in the same range of IC50: 10 to 100 µM for the first, 10 to 100 µM for the second.

CNC(=O)c1cnc(Nc2ccccc2C)c(NC(=O)Cc2ccc(OCc3ccccc3)c(OCc3ccccc3)c2)c1 [I-14] and CNC(=O)c1cnc(Nc2ccccc2C)c(NC(=O)c2ccccc2)c1 [I-43] fall in the same range of IC50: 10 to 100 µM for the first, 10 to 100 µM for the second.

Compared with Cc1ccccc1Nc1ncc(C2=CCNCC2)cc1NC(=O)c1cc(F)cc(C(F)(F)F)c1 [I-16], Cc1ccccc1Nc1ncc(C#N)cc1NC(=O)c1cc(F)cc(C(F)(F)F)c1 [I-49] is lower in IC50: 10 to 100 µM for the first, 1 to 10 µM for the second.

First: CNC(=O)c1cnc(Nc2ccccc2C)c(NC(=O)c2oc(C)nc2C)c1 [I-18]
Second: CNC(=O)c1cnc(Nc2ccccc2C)c(NC(=O)Cc2c(C)nc(N)[nH]c2=O)c1 [I-26]
The IC50 of the first is lower: 1 to 10 µM for the first, 10 to 100 µM for the second.

Compared with CNC(=O)c1cnc(Nc2ccccc2C)c(NS(=O)(=O)c2ccccc2)c1 [I-20], CNC(=O)c1cnc(Nc2ccccc2C)c(NCc2ccccc2)c1 [I-23] is higher in IC50: 1 to 10 µM for the first, 10 to 100 µM for the second.

Compared with Cc1ccccc1Nc1ncc(C(=O)N2CCOCC2)cc1NC(=O)c1cc(F)cc(C(F)(F)F)c1 [I-22], Cc1ccccc1Nc1ncc(NS(C)(=O)=O)cc1NC(=O)c1cc(F)cc(C(F)(F)F)c1 [I-62] is lower in IC50: 10 to 100 µM for the first, 1 to 10 µM for the second.

CNC(=O)c1cnc(Nc2ccccc2)c([N+](=O)[O-])c1 [I-24] and CNC(=O)c1cnc(Nc2cccc(F)c2)c([N+](=O)[O-])c1 [I-25] fall in the same range of IC50: 10 to 100 µM for the first, 10 to 100 µM for the second.

Compared with CNC(=O)c1cnc(Nc2cccc(F)c2)c(NC(=O)c2cc(F)cc(C(F)(F)F)c2)c1 [I-29], CNC(=O)c1cnc(Nc2cccc(C)c2)c(NC(=O)c2cc(F)cc(C(F)(F)F)c2)c1 [I-39] is lower in IC50: 10 to 100 µM for the first, 1 to 10 µM for the second. The second is the more potent here.

CNC(=O)c1cnc(Nc2ccccc2)c(N)c1 [I-31] and CNC(=O)c1cnc(Nc2cccc(F)c2)c(N)c1 [I-32] fall in the same range of IC50: 10 to 100 µM for the first, 10 to 100 µM for the second.

CNC(=O)c1cnc(Nc2ccccc2)c(NC(=O)c2cc(F)cc(C(F)(F)F)c2)c1 [I-33] and CNC(=O)c1cnc(Nc2ccccc2C#N)c(NC(=O)c2cc(F)cc(C(F)(F)F)c2)c1 [I-38] fall in the same range of IC50: 10 to 100 µM for the first, 10 to 100 µM for the second.

CNC(=O)c1cnc(Nc2ccccc2C)c(NCC2CC2)c1 [I-34] and CNC(=O)c1cnc(Nc2ccccc2C)c(NS(=O)(=O)c2cn(C)nc2C)c1 [I-55] fall in the same range of IC50: 10 to 100 µM for the first, 10 to 100 µM for the second.

Compared with CNC(=O)c1cnc(Nc2ccccc2C)c(NC(=O)c2cc3ccccc3o2)c1 [I-40], CNC(=O)c1cnc(Nc2ccccc2C)c(NC(=O)c2coc3ccccc23)c1 [I-44] is lower in IC50: 10 to 100 µM for the first, 1 to 10 µM for the second.

CNC(=O)c1cnc(Nc2ccccc2S(C)(=O)=O)c(NC(=O)c2cc(F)cc(C(F)(F)F)c2)c1 [I-47] and CNc1ncc(Br)cc1NC(=O)c1cc(F)cc(C(F)(F)F)c1 [I-58] fall in the same range of IC50: 10 to 100 µM for the first, 10 to 100 µM for the second.

CNC(=O)c1cnc(Nc2ccccc2C)c(NC(=O)c2ncn3ccccc23)c1 [I-48] and Cc1ccccc1Nc1ncc(-c2cnn(C)c2)cc1Nc1ncnn2cccc12 [I-61] fall in the same range of IC50: 10 to 100 µM for the first, 10 to 100 µM for the second.

Same assay, conditions: ADP-Glo biochemical PIK3CA kinase assay

Compared with CNC(=O)c1cnc(N[C@@H]2CCOC2)c(NC(=O)c2cc(F)cc(C(F)(F)F)c2)c1 (racemic) [I-554], O=C(N[C@H]1CCC[C@H]1N1CCOc2ccccc21)c1cc(F)cc(C(F)(F)F)c1 (racemic) [I-796] is lower in IC50: 1 to 10 µM for the first, 0.5 to 1 µM for the second. The second is the more potent here.

First: CCOC(=O)[C@H]1CC[C@@H](NC(=O)c2cnc(Nc3ccccc3C)c(NC(=O)c3csc4ccccc34)c2)C1 (racemic) [I-653]
Second: CCOC(=O)[C@@H]1CC[C@@H](NC(=O)c2cnc(Nc3ccccc3C)c(NC(=O)c3csc4ccccc34)c2)C1 (racemic) [I-654]
The IC50 of the first is lower: 0.5 to 1 µM for the first, 1 to 10 µM for the second.

Cc1ccccc1[C@H]1NC(=O)C[C@@H]1C(=O)Nc1cc(F)cc(C(F)(F)F)c1 (racemic) [I-669] and CNC(=O)c1cnc(N2CCC[C@@H]3CCC[C@@H]32)c(NC(=O)c2csc3ccccc23)c1 (single isomer, unassigned) [I-633] fall in the same range of IC50: 1 to 10 µM for the first, 1 to 10 µM for the second.

With Cc1ccccc1Nc1ncc(C(=O)N[C@@H]2CC[C@@H](C(=O)O)C2)cc1NC(=O)c1csc2ccccc12 (single isomer, unassigned) [I-661] the IC50 was 1 to 10 µM.
